Assay results published in patent US10561637B2, “Methods for treating angiogenesis related disorder” (KAOHSIUNG MEDICAL UNIVERSITY, priority 2017, dated 2020).
Entries after “also recorded” stand apart in the source; their conditions may differ.

Experiments:
human EPCs [1] = experiment: Sulforhodamine B (SRB) cell proliferation assay in human EPCs; type: cell-based; conditions: 48th hour
Description: (§1) Mitella formosana (Hayata) Masam. is a perennial herb of Saxifragaceae, a native plant of Taiwan. In the present invention, three kinds of tannin compounds, PGG, tellimagrandin I, and tellimagrandin II, found in the compounds extracted from Mitella formosana by using Bioassay-guided fractionation, inhibited the proliferation of EPCs in a concentration dependent manner. […] The results of tube formation assay confirmed that these three compounds (10 μM) inhibited the tube formation of EPCs in different degrees (FIG. 2B). […] Importantly, CAM-angiogenesis model and mice Matrigel-plus model were used to verify the anti-angiogenic effect of tellimagrandin II in vivo.

human EPCs [2] = experiment: tube formation assay (capillary-like structures) in human EPCs; type: cell-based; conditions: 5 and 10 μM, 24 hours, phase-contrast microscope
Description: The data of five independent experiments are expressed as the mean±mean standard deviation. As compared with the control group, * means p<0.05; *** means p<0.001.
as §1

human EPCs [3] = experiment: lactate dehydrogenase (LDH) release assay in human EPCs; type: cell-based; conditions: 10-20 μM, 24th hour
Description: The data of five independent experiments are expressed as the mean±mean standard deviation. As compared with the control group, * means p<0.05; ** means p<0.05; *** means p<0.001.
as §1

chicken embryo = experiment: chorioallantoic membrane (CAM) angiogenesis assay; type: in vivo; conditions: CAM-angiogenesis model
Description: (§2) Sorafenib is a multiple kinase inhibitor, which is used as a positive control in the in vivo anti-angiogenesis assay.
as §1

mice = experiment: Matrigel plug model of capillary formation; type: in vivo
Description: as §2, §1

Row | SMILES | proliferation of EPCs (human EPCs [1]) | tube formation of EPCs, concentration dependence (human EPCs [2]) | LDH release (cytotoxicity) (human EPCs [3]) | in vivo neovascularization in the chicken embryo (chicken embryo) | formation of capillaries in mice (mice)
1 | O=C(OC[C@H]1O[C@@H](OC(=O)c2cc(O)c(O)c(O)c2)[C@H](OC(=O)c2cc(O)c(O)c(O)c2)[C@@H](OC(=O)c2cc(O)c(O)c(O)c2)[C@@H]1OC(=O)c1cc(O)c(O)c(O)c1)c1cc(O)c(O)c(O)c1 [PGG, 1,2,3,4,6-penta-O-galloyl-β-D-glucose] | suppress the proliferation of EPCs in a concentration dependent manner | inhibited the tube formation of EPCs in a concentration dependent manner |  |  | 
2 | O=C(OC1O[C@@H]2COC(=O)c3cc(O)c(O)c(O)c3-c3c(cc(O)c(O)c3O)C(=O)O[C@H]2[C@H](OC(=O)c2cc(O)c(O)c(O)c2)[C@H]1OC(=O)c1cc(O)c(O)c(O)c1)c1cc(O)c(O)c(O)c1 (some centres unmarked) [tellimagrandin II] | suppress the proliferation of EPCs in a concentration dependent manner; also recorded: exhibited the most potent effect | inhibited the tube formation of EPCs in a concentration dependent manner | LDH release was not induced | inhibited in vivo neovascularization in the chicken embryo in a concentration dependent manner | effectively inhibited the formation of capillaries in mice
3 | O=C(O[C@H]1[C@@H]2OC(=O)c3cc(O)c(O)c(O)c3-c3c(cc(O)c(O)c3O)C(=O)OC[C@H]2OC(O)[C@@H]1OC(=O)c1cc(O)c(O)c(O)c1)c1cc(O)c(O)c(O)c1 (some centres unmarked) [tellimagrandin I] | suppress the proliferation of EPCs in a concentration dependent manner |  |  |  | 
